Measured values reported in publication PMC10088752 (Journal of Natural Medicines, 2023).

Target: BACE1 (Homo sapiens, UniProt P56817)
Assay: BACE1 FRET assay
Assay type: biochemical

Sequence of BACE1 (P56817 46-501): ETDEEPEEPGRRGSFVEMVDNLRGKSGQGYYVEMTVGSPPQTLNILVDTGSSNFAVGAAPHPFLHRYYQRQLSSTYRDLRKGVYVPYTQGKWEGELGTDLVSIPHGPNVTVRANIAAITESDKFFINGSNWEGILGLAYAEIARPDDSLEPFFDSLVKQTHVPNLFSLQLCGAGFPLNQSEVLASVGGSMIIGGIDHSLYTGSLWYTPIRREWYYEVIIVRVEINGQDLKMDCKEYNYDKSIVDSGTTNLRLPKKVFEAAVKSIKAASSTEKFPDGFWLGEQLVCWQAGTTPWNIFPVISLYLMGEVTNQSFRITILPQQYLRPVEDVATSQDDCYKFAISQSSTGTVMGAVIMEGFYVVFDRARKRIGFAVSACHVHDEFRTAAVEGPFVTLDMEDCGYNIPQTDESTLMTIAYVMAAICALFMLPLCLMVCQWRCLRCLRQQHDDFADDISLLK

Compound	IC50 [µM]
COc1cc(OC)c2c(O)c3c(=O)cc(C)oc3c(-c3c(O)cc4cc(O)c5c(=O)cc(C)oc5c4c3OC)c2c1 [Compound 7, asperpyrone A]	36.5
COc1cc(OC)c2c(O)c3c(=O)cc(C)oc3c(-c3c(OC)cc4cc(O)c5c(=O)cc(C)oc5c4c3OC)c2c1 [Compound 4, fonsecinone A]	14.9
